Like-named read-outs stand apart in the source and are kept apart here.
Assays:
[1] = test system: Ba/F3_Del19/T790M/C797S cells; assay: Ba/F3_Del19/T790M/C797S cell proliferation inhibition assay (CellTiter-Glo); format: cell-based
How it was run: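 Ba/F3 cells carrying EGFR Del19/T790M/C797S were seeded at 700 cells/well and exposed to serially diluted compound (0.1% DMSO final) for 72 h at 37° C. Viability was read by CellTiter-Glo luminescence to give IC50.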

[2] = test system: A431 cells (EGFR WT); assay: A431 cell proliferation inhibition assay (CellTiter-Glo); format: cell-based
How it was run: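 Seeded cells grown 24 h, then exposed 72 h (37° C, 5% CO2) to graded compound dilutions at 0.1% DMSO final. Viability read by CellTiter-Glo luminescence after 30 min at room temperature; IC50 fitted from the dose curve.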

[3] = biological target: EGFR WT (wild type EGFR) (Homo sapiens (Human), UniProt P00533); assay: In vitro enzymatic TR-FRET (HTRF KinEASE-TK) kinase assay, EGFR WT; format: biochemical; conditions: kinase activity, TR-FRET; read-out: EGFR (WT) IC50
Chain of EGFR WT (wild type EGFR) (P00533 25-1210): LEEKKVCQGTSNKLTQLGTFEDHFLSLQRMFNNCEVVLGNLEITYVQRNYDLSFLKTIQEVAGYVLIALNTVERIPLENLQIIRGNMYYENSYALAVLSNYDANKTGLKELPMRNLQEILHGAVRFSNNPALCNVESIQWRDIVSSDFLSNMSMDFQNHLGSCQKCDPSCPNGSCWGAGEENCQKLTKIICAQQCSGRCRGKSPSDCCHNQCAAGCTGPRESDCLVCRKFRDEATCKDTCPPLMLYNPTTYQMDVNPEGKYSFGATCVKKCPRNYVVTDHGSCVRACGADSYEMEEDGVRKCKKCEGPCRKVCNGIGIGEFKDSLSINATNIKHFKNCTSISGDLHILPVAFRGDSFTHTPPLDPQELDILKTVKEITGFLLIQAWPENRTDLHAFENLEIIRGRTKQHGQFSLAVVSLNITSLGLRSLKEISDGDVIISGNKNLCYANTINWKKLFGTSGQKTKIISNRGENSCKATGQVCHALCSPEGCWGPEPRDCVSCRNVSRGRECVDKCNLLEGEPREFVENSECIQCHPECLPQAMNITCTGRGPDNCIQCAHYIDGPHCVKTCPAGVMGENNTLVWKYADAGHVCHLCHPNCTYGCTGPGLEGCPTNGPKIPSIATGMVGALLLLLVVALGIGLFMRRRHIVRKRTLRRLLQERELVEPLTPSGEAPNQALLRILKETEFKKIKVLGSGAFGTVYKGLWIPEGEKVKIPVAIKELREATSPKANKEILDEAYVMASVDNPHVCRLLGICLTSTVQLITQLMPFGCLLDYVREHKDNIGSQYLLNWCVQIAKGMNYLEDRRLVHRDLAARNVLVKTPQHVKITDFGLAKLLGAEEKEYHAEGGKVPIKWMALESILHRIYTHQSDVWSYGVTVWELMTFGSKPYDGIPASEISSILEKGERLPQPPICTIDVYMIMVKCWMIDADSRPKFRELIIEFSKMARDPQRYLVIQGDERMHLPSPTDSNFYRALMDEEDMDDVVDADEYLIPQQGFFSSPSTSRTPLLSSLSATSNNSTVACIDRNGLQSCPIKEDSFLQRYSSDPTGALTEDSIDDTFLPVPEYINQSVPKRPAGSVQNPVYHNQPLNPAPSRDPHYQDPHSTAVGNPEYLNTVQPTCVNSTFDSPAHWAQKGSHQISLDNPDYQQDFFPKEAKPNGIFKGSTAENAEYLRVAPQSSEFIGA
How it was run: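 Recombinant enzyme preincubated with compound 10 min at room temperature in kinase buffer with 5 mM MgCl2, 1 mM MnCl2, 1 mM DTT. Biotinylated TK substrate plus ATP then added for 40 min. HTRF detection (Sa-XL665, Cryptate antibody) for 1 h; IC50 from 665/615 nm ratio.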

[4] = biological target: EGFR L858R/T790M/C797S (Homo sapiens (Human), UniProt P00533, C797S/L858R/T790M); assay: In vitro enzymatic TR-FRET (HTRF KinEASE-TK) kinase assay, EGFR L858R/T790M/C797S; format: biochemical; conditions: kinase activity
Chain of EGFR L858R/T790M/C797S (P00533 25-1210 T790M/C797S/L858R): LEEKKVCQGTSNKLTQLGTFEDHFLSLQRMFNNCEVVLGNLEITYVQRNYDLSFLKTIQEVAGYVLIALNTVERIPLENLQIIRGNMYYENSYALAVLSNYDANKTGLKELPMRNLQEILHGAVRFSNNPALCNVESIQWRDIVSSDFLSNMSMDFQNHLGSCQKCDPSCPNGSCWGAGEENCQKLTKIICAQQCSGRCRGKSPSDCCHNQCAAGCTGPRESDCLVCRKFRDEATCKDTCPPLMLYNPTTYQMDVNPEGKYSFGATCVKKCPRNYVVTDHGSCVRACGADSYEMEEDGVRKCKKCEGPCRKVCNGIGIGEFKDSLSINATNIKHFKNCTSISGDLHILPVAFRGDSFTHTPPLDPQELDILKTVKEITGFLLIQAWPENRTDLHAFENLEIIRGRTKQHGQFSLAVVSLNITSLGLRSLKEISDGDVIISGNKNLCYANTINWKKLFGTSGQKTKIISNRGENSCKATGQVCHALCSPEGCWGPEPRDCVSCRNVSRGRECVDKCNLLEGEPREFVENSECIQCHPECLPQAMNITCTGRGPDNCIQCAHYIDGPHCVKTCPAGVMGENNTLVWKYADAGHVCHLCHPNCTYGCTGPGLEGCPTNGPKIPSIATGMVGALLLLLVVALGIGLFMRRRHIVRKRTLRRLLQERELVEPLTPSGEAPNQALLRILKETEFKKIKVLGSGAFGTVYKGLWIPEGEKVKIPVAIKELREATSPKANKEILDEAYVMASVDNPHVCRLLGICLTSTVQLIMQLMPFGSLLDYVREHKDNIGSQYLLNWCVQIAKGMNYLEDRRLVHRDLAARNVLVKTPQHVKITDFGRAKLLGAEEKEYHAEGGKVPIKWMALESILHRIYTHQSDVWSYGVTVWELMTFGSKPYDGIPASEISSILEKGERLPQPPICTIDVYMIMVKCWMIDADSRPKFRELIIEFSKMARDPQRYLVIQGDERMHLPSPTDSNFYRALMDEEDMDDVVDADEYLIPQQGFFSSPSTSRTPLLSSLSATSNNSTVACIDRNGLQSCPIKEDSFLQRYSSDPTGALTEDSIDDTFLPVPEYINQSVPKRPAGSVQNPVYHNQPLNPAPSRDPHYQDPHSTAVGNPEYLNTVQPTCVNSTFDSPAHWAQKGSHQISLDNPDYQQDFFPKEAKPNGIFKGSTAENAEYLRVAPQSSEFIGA
Experimental: (I) In Vitro Enzymatic Experiment for EGFR WT and EGFR L858R/T790M/C797S
In the assay, the inhibition effect of the compound on the kinase activity of EGFR WT (wild type EGFR) and EGFR L858R/T790M/C797S was tested by adopting a time-resolved fluorescence resonance energy transfer (TR-FRET) method, and half maximal inhibitory concentration IC50 of the compound on the kinase activity of EGFR was obtained.
EGFR recombinase and EGFR L858R/T790M/C797S recombinase, purchased from Signalchem.
HTRF KinEASE-TK kit, purchased from Cisbio.
DTT, MnCl2, and MgCl2, purchased from Sigma.
ATP, purchased from Promega.
Brigatinib, purchased from Selleck.
1) 1× working solution was prepared: 5 mM MgCl2; 1 mM DTT; 1 mM MnCl2 and 1× kinase buffer (in kit).
2) […] of gradiently-diluted compound was transferred to a 384-well plate using Echo 550 (Labcyte).
3) 5 μL of 2× EGFR WT or EGFR L858R/T790M/C797S recombinase solution was added to the 384-well plate, and the plate was incubated at room temperature for 10 min.
4) 5 μL of 2× TK-substrate-biotin substrate solution (containing ATP) was added to the 384-well plate, and the plate was incubated at room temperature for 40 min.
5) 5 μL of assay solution containing Sa-XL 665 HTRF and 5 μL of TK-antibody-Cryptatewas were added to the plate, and the plate was incubated at room temperature for 1 h.
6) The fluorescence signal values at 615 nm and 665 nm were measured for each well using an Envision microplate reader (PerkinElmer).
7) The ratio of fluorescence signal values at 665 nm and 615 nm was calculated for each well.
8) Data analysis was performed using GraphPad Prism software to give the IC50 for compounds.

[5] = test system: Ba/F3_L858R/T790M/C797S cells; assay: Ba/F3_L858R/T790M/C797S cell proliferation inhibition assay (CellTiter-Glo); format: cell-based
How it was run: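 Ba/F3 cells engineered to carry EGFR L858R/T790M/C797S, seeded at 700 cells/well, exposed to serially diluted compound (0.1% DMSO final) for 72 h at 37 °C, 5% CO2. Viability read by CellTiter-Glo luminescence after 30 min at room temperature; IC50 from dose-response fit.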

[6] = Mus musculus, BaF3, 72 h, read-out: Ba/F3 (Del19/T790M/C797S) IC50(nM)
[7] = Homo sapiens, A-431, 72 h, read-out: A431 EGFR WT IC50(nM)
[8] = Mus musculus, BaF3, 72 h, read-out: Ba/F3 (L858R/T790M/C797S) IC50(nM)
[9] = Mus musculus, BaF3, cell proliferation, 72 h, CellTiter-Glo, read-out: Ba/F3 (Del19/T790M/C797S) IC50
[10] = Homo sapiens, A-431, cell proliferation, 72 h, CellTiter-Glo, read-out: A431 EGFR WT IC50
[11] = Mus musculus, BaF3, cell proliferation, 72 h, CellTiter-Glo, read-out: Ba/F3 (L858R/T790M/C797S) IC50
[12] = cell proliferation, 72 h, CellTiter-Glo, read-out: Ba/F3 (Del19/T790M/C797S) IC50
[13] = cell proliferation, 72 h, CellTiter-Glo, read-out: A431 EGFR WT IC50
[14] = cell proliferation, 72 h, CellTiter-Glo, read-out: Ba/F3 (L858R/T790M/C797S) IC50

Row | IC50 [3] [nM] | IC50 [4] [nM] | IC50 [1, 9] [nM] | IC50 [2, 10] [nM] | IC50 [5, 11] [nM] | IC50 [1, 12] [nM] | IC50 [2, 13] [nM] | IC50 [5, 14] [nM] | Compound | IC50 [1, 6] [nM] | IC50 [2, 7] [nM] | IC50 [5, 8] [nM]
1 | < 1 | < 1 | < 10 | 100 to 1000 | 10 to 50 |  |  |  | COc1cc2c(cc1Nc1ncc(Br)c(Nc3ccc4nccnc4c3NS(C)(=O)=O)n1)-c1cnn(C)c1CCN2C [Compound 35] |  |  | 
2 | 1 to 10 | < 1 | < 10 | 100 to 1000 | < 10 |  |  |  | COc1nc2c(cc1Nc1ncc(Br)c(Nc3ccc4nccnc4c3P(C)(C)=O)n1)-c1cnn(C)c1CCN2C [Compound 80] |  |  | 
3 | 1 to 10 | < 1 | < 10 | 100 to 1000 | < 10 |  |  |  | COc1cc2c(cc1Nc1ncc(Br)c(Nc3ccc4nccnc4c3NS(C)(=O)=O)n1)-c1cnn(C)c1CCN2C1CCOCC1 [Compound 130] |  |  | 
4 | 1 to 10 | 1 to 10 | 10 to 50 | 100 to 1000 | 50 to 100 |  |  |  | COc1cc2c(cc1Nc1ncc(F)c(Nc3ccccc3P(C)(C)=O)n1)-c1cnn(C)c1CCN2C [Compound 17] |  |  | 
5 | < 1 | < 1 | < 10 | 50 to 100 | < 10 |  |  |  | COc1cc2c(cc1Nc1ncc(C)c(Nc3ccc4nccnc4c3P(C)(C)=O)n1)-c1cnn(C)c1CCN2C [Compound 5] |  |  | 
6 | < 1 | < 1 |  |  |  | < 10 | 50 to 100 | < 10 | COc1cc2c(cc1Nc1ncc(Br)c(Nc3ccc4nccnc4c3P(C)(C)=O)n1)-c1cnn(C)c1CCN2C1CCN(C)C[C@@H]1F (some centres unmarked) [Compound 68] |  |  | 
7 | 50 to 100 | 1 to 10 | 10 to 50 | 100 to 1000 | 10 to 50 |  |  |  | COc1cc2c(cc1Nc1ncc(Br)c(Nc3ccccc3P(C)(C)=O)n1)-c1cccnc1CCN2C [Compound 99] |  |  | 
8 | 1 to 10 | < 1 | < 10 | 100 to 1000 | 10 to 50 |  |  |  | COc1cc2c(cc1Nc1ncc(Br)c(Nc3ccccc3P(C)(C)=O)n1)-c1cnn(C)c1CCC2N(C)C (centres unmarked) [Compound 78] |  |  | 
9 | > 1000 | 100 to 1000 | < 10 | 100 to 1000 | 10 to 50 |  |  |  | COc1cc2c(cc1Nc1ncc(Br)c(Nc3ccc4nccnc4c3NS(C)(=O)=O)n1)-c1cnn(C)c1CCN2CC(F)(F)F [Compound 125] |  |  | 
10 | 1 to 10 | < 1 |  |  |  | < 10 | 100 to 1000 | 10 to 50 | COc1cc2c(cc1Nc1ncc(Br)c(Nc3ccccc3P(C)(C)=O)n1)-c1cnn(C3COC3)c1CCN2C(C)C [Compound 77A] |  |  | 
11 | 1 to 10 | < 1 | < 10 | 100 to 1000 | 10 to 50 |  |  |  | COc1cc2c(cc1Nc1ncc(Br)c(Nc3cccnc3P(C)(C)=O)n1)-c1cnn(C)c1CCN2C(C)C [Compound 83] |  |  | 
12 | 50 to 100 | 1 to 10 | 10 to 50 | > 1000 | 10 to 50 |  |  |  | COc1ccc(Cn2ncc3c2CCN(C)c2cc(OC)c(Nc4ncc(Br)c(Nc5ccccc5P(C)(C)=O)n4)cc2-3)cc1 [Compound 34] |  |  | 
13 | < 1 | < 1 | < 10 | 100 to 1000 | 10 to 50 |  |  |  | COc1cc2c(cc1Nc1ncc(Br)c(Nc3ccc4nccnc4c3P3(=O)CCN(C)CC3)n1)-c1cnn(C)c1CCN2C(C)C [Compound 91] |  |  | 
14 | 10 to 50 | 1 to 10 | 10 to 50 | > 1000 | 100 to 1000 |  |  |  | COc1cc2c(cc1Nc1nccc(Nc3ccccc3P(C)(C)=O)n1)-c1cnn(C)c1CCN2C [Compound 22] |  |  | 
15 | 10 to 50 | < 1 | 10 to 50 | 100 to 1000 | 50 to 100 |  |  |  | COc1cc2c(cc1Nc1ncc(C3CC3)c(Nc3ccccc3P(C)(C)=O)n1)-c1cnn(C)c1CCN2C [Compound 30] |  |  | 
16 | 1 to 10 | < 1 |  |  |  | < 10 | 100 to 1000 | 10 to 50 | COc1cc2c(cc1Nc1ncc(Br)c(Nc3ccccc3P(C)(C)=O)n1)-c1cnn(C)c1CCN2[C@@H]1CCN(C)C[C@H]1F (single isomer, unassigned) [Compound 66A] |  |  | 
17 | < 1 | < 1 | < 10 | 100 to 1000 | < 10 |  |  |  | COc1nc2c(cc1Nc1ncc(Br)c(Nc3ccc4nccnc4c3NS(C)(=O)=O)n1)-c1cnn(C)c1CCN2C [Compound 107] |  |  | 
18 | < 1 | < 1 | < 10 | 10 to 50 | < 10 |  |  |  | COc1cc2c(cc1Nc1ncc(Br)c(Nc3ccc4nccnc4c3P(C)(C)=O)n1)-c1cnn(C)c1CCN2C1CN(C)C1 [Compound 10] |  |  | 

Row | Compound | IC50 [3] [nM] | IC50 [4] [nM] | IC50 [1, 9] [nM] | IC50 [2, 10] [nM] | IC50 [5, 11] [nM] | IC50 [1, 12] [nM] | IC50 [2, 13] [nM] | IC50 [5, 14] [nM] | IC50 [1, 6] [nM] | IC50 [2, 7] [nM] | IC50 [5, 8] [nM]
19 | COc1nc2c(cc1Nc1ncc(Br)c(Nc3ccc4nccnc4c3P(C)(C)=O)n1)-c1cnn(C)c1CCN2C(C)C [Compound 82] | 1 to 10 | 1 to 10 |  |  |  |  |  |  | 10 to 50 | > 1000 | 10 to 50
20 | CCN(c1c(Nc2nc(Nc3cc4c(cc3OC)N(C(C)C)CCc3c-4cnn3C)ncc2Br)ccc2nccnc12)S(C)(=O)=O [Compound 134] | 10 to 50 | 1 to 10 |  |  |  |  |  |  | < 10 | 100 to 1000 | 10 to 50
21 | COc1cc2c(cc1Nc1ncc(Br)c(Nc3ccccc3N(C(C)C)S(C)(=O)=O)n1)-c1cnn(C)c1CCN2 [Compound 122] | 50 to 100 | 1 to 10 |  |  |  |  |  |  | 10 to 50 | 100 to 1000 | 10 to 50
22 | COc1cc2c(cc1Nc1ncc(Br)c(Nc3ccccc3NS(C)(=O)=O)n1)-c1cnn(C)c1CCN2 [Compound 121] | 100 to 1000 | 1 to 10 |  |  |  |  |  |  | < 10 | 100 to 1000 | < 10

— patent publication US20240034743A9, “TRICYCLIC COMPOUNDS AS EGFR INHIBITORS” (QILU PHARMACEUTICAL CO., LTD., priority 2020, published 2024)
